This is an account of results in PMC4373589 (Journal of medicinal chemistry, 2013).

Molecules are shown by their SMILES.

The term Ki denotes a dissociation constant, usually derived from enzyme kinetics or from competition with a known ligand. High values mean weaker binding, low ones tighter binding. The term EC50 denotes the concentration needed to bring the measured effect to its halfway point. A lower EC50 goes with greater potency.

One data set has as its system morphine dependent mice. Description: Opioid withdrawal assay in morphine-pelleted mice. The format is in vivo. The settings on record: for Precipitated withdrawal symptoms, overall comparison: morphine-pelleted mice, s.c.
For data set [1], the target named is T1, kappa opioid receptor (KOR) (Mus musculus, UniProt P33534). Description: biochemical. The format is binding, mice.
Data set [2] concerns the target T2, delta opioid receptor (DOR) (Mus musculus, UniProt P32300). Description: DOR competitive radioligand binding. Details: species or system mice.
The target of data set [3] is T2, delta opioid receptor (DOR). Description: DOR [35S]-GTPγS binding assay. On the technique in general: Binding of GTPγS marks nucleotide exchange on a G protein.
In a further data set the test system is antinociception. Description: Warm-water tail flick assay, acute agonist effect. The settings on record: up to 30 mg/kg dose; s.c. On the technique in general: In hot-plate and tail-flick tests a longer latency is read as antinociception.
The target of another data set is mu opioid receptor (MOR) (Mus musculus, UniProt P42866). The experiment in a line: MOR competitive radioligand binding. The arrangement: species or system mice.
Data set [4] concerns the target T1, kappa opioid receptor (KOR). Description: KOR [35S]-GTPγS binding assay.
The next data set has as its system KOR. As to conditions: cited from earlier work.
The subject of the next data set is morphine antinociception. Description: Warm-water tail flick assay, antagonism of morphine antinociception. The format is in vivo. As to conditions: antagonizing morphine (10 mg/kg) antinociception; s.c.; six mice.
Setting [5] is: increasing dose up to 30 mg/kg s.c.

T2 sequence (P32300 whole entry): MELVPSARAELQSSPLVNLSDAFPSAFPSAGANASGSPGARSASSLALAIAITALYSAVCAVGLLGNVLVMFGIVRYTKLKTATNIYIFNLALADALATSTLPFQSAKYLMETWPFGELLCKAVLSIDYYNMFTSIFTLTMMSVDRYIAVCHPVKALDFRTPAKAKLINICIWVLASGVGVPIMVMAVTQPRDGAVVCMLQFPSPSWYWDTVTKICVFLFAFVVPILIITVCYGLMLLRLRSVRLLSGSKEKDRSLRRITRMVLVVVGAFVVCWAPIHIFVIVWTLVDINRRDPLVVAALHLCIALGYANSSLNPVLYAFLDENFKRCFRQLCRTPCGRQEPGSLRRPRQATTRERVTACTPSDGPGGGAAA
T1 sequence (P33534 whole entry): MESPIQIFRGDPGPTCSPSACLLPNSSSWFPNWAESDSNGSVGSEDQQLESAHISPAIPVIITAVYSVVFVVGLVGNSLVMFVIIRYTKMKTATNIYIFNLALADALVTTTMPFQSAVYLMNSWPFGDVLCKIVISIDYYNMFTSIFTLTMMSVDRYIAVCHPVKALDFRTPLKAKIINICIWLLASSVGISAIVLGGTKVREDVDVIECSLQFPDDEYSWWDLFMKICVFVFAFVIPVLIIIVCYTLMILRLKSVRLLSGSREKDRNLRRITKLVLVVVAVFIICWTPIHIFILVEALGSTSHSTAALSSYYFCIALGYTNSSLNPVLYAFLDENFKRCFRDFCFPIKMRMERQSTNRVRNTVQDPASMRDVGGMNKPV
Chain of mu opioid receptor (MOR) (P42866 whole entry): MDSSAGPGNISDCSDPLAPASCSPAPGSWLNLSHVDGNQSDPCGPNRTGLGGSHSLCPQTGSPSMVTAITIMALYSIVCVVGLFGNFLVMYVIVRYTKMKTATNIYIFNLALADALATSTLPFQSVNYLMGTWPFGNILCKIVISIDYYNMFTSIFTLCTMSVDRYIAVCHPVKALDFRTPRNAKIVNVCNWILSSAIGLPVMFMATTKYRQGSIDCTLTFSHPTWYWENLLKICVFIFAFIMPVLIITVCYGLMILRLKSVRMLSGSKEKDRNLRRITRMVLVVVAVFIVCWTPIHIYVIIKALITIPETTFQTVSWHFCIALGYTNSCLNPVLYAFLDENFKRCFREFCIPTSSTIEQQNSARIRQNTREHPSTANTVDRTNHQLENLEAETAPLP

As to `O=C(N[C@@]12CCC(=O)[C@@H]3Oc4c(O)ccc5c4[C@@]31CCN(CC1CC1)[C@@H]2C5)c1cc2ccccc2cn1` [Compound 14, 17-cyclopropylmethyl-4,5α-epoxy-3-hydroxy-14β-N-[(3’-isoquinolyl)carboxamido]-morphinan-6-one], in the data set with morphine dependent mice (30 mg/kg s.c., compared with 1 mg/kg naloxone and naltrexone), the “Wet dog shakes at 30 mg/kg” value is “resembled the effect of 1 mg/kg naloxone and naltrexone”. For the same molecule, the “Escape jumps, effect of dose” value with morphine dependent mice (setting [5]) was “no significant dose-response effect”. The “Wet dog shakes, effect of dose” value with morphine dependent mice (setting [5]) is “dose-response increasing effect”. Further, the “Precipitated withdrawal symptoms, overall comparison” value in the data set with morphine dependent mice is given as “behaved similarly to naltrexone”. For the same molecule, the values for the Ki (in [1]; in data set [2]; at mu opioid receptor (MOR)) were 0.27 ± 0.02 nM, 25.1 ± 1.8 nM and 3.5 ± 1.87 nM, respectively. The figures for the EC50 in [3] and in data set [4] were 14.2 ± 1.9 nM and 2.75 ± 0.71 nM, respectively. Also, in the data set with antinociception, the “Agonist effect in tail flick assay” value is “None of the compounds produced any significant agonist effect”.
Consider `Oc1cccc2c1O[C@H]1CCC[C@H]3CN(CC4CC4)CC[C@@]231` [LTC-274, (-)-3-cyclopropylmethyl-2,3,4,4α,5,6,7,7α-octahydro-1H-benzofuro[3,2-e]isoquinolin-9-ol], for which, in the data set on KOR, the “Emax (KOR partial agonist)” value is listed as 23%.
Turning to `C=CCN1CC[C@]23c4c5ccc(O)c4O[C@H]2C(=O)CC[C@@]3(O)[C@H]1C5` [Naloxone, naloxone, reference compound], the “Precipitated withdrawal symptoms, overall comparison” value in the data set on morphine dependent mice is “even more significant syndrome”. In addition, the “AD50 values (mg/kg (95% CL))” value in the data set with morphine antinociception is reported as 0.05 (0.03-0.09) mg/kg.
